Patent publication US3965109A, “Certain aryl amino pyridines” (priority 1971, dated 1976)
Read-outs that look alike come from different tables or passages of the source.

Experiments:
[1] = tested on: Corynebacterium michiganense; assay: Antibacterial agar test (B2); format: cell-based; settings: 50 ppm; 5 days
Experimental: (§1) This Example illustrates the activity of compounds used as the active ingredients of compositions according to the invention against a variety of plant bacterial diseases and fungal post-harvest saprophytic diseases. In a test for such activity, 5 milligrams of the compound to be tested was dissolved or suspended in 10 ml. of acetone and enough of this solution or suspension was added to 18 ml. of nutrient agar (for the bacterial diseases) or 16 ml. of 2% malt agar (for the fungal diseases) to give a final concentration of 50 parts per million of the compound under test. A streptomycin preparation (2 ml. containing 100 units per ml.) was added to the malt agar to prevent bacterial contamination of the fungal tests.
(§2) The agar preparations were dried overnight in Petri dishes and inoculated the following morning with the bacterial or fungal diseases using a multipoint inoculator. The antibacterial activity was assessed after 5 days and the antifungal activity after 6 days. The results of the tests are set out in Table 16 (anti bacterial activity) and Table 17 (antifungal activity). The results are graded as in Example 1 above.

[2] = tested on: Agrobacterium tumifaciens; assay: Antibacterial agar test (B1); format: cell-based; settings: 50 ppm; 5 days
[3] = tested on: Xanthomonas oryzae; format: cell-based; settings: 50 ppm; 5 days
[4] = tested on: Piricularia oryzae (rice); format: in vivo; settings: 7 days
[5] = tested on: Puccinia recondita (wheat); assay: Fungicidal test against foliar disease A (foliage spray plus soil drench); format: in vivo; settings: 10 days
[6] = tested on: Erwinia carotovora; assay: Antibacterial agar test (B4); format: cell-based; settings: 50 ppm; 5 days
[7] = tested on: Plasmopara viticola (vine); assay: Fungicidal test against foliar disease C (foliage spray plus soil drench); format: in vivo; settings: 10 days
[8] = tested on: Phytophthora infestans (tomato); format: in vivo; settings: 3 days
[9] = tested on: Xanthomonas malvacearum; assay: Antibacterial agar test (B3); format: cell-based; settings: 50 ppm; 5 days
Experimental: as §1, §2

[10] = tested on: Pseudomonas syringae; assay: Antibacterial agar test (B6); format: cell-based; settings: 50 ppm; 5 days
[11] = tested on: Uncinula necator (vine); assay: Fungicidal test against foliar disease D (foliage spray plus soil drench); format: in vivo; settings: 10 days
[12] = tested on: Streptomyces scabies; assay: Antibacterial agar test (B7); format: cell-based; settings: 50 ppm; 5 days
[13] = tested on: Musca domestica (houseflies); assay: Pest toxicity test, contact test; format: in vivo; settings: 0.1% by weight; milk/sugar; 2 days; flies sprayed directly
[14] = tested on: Aphis fabae; assay: Pest toxicity test; format: in vivo; settings: 0.1% by weight; broad bean; 2 days
[15] = tested on: Pieris brassicae (cabbage white caterpillars); assay: Pest toxicity test; format: in vivo; settings: 0.1% by weight, 2 days
[16] = tested on: Phaedon cochleariae (mustard beetles); assay: Pest toxicity test; format: in vivo; settings: in vivo
[17] = tested on: Megoura viceae; assay: Pest toxicity test; format: in vivo; settings: 0.1% by weight; broad bean; 2 days
[18] = tested on: Aedes aegypti (mosquito adults); assay: Pest toxicity test; format: in vivo; settings: 0.01% by weight; plywood; 1 day
[19] = tested on: Tetranychus telarius (red spider mites, eggs); assay: Pest toxicity test; format: in vivo; settings: 0.1% by weight; French bean; 3 days
[20] = tested on: Tetranychus telarius (red spider mites, adults); assay: Pest toxicity test; format: in vivo; settings: 0.1% by weight; French bean; 3 days
[21] = tested on: Aedes aegypti (mosquito larvae); assay: Pest toxicity test; format: in vivo; settings: for Mortality grading (kill): 0.01% by weight, water, 1 day
[22] = tested on: Plutella maculipennis (diamond back moth larvae); assay: Pest toxicity test; format: in vivo; settings: in vivo
[23] = tested on: Meloidogyne incognita (nematodes); assay: Pest toxicity test; format: in vivo; settings: 0.01% by weight; water; 1 day
[24] = tested on: Agriolimax reticulatus (slugs); assay: Molluscicidal activity test; format: in vivo, Agriolimax reticulatus (Mull); settings: pellet with 4% by weight; 6 days; 10°C
Experimental: A weighed sample of the compound under test was dissolved in 0.5 c.c. of an ethanol and acetone mixture 50:50 v/v). The solution was diluted with 0.5 cc water and poured onto a calf feeding pellet in a glass Petri dish. The pellet was then air dried for 24 hours. The weight of compound used was chosen so that the dried pellet contained 4% by weight of the active ingredient. Two replicates each consisting of a plastic Petri dish containing a pellet, 2 slugs, and a moistened filter paper to maintain a high relative humidity were used in each test. The dishes were left in a cold room (10°C.) After 6 days the kill was assessed.
The slugs used were Agriolimax reticulatus (Mull), and they had been starved for 24 hours before the commencement of the tests.

[25] = 50 ppm spray + 200 ppm soil drench

Compound: O=[N+]([O-])c1cc([N+](=O)[O-])c(Nc2c(Cl)c(F)nc(F)c2Cl)cc1F [Compound 6, 3,5-Dichloro-2,6-difluoro-4(2,4-dinitro-5-fluoroanilino)pyridine]
- Antibacterial activity grading B2 [1]: 3 (0 to 5)
- Antibacterial activity grading B1 [2]: 3 (0 to 5)
- Antibacterial activity grading B5 [3]: 2 (6 to 25)
- Amount of disease grading, disease E [4, 25]: 3 (0 to 5)
- Amount of disease grading, disease A [5, 25]: 0 (61 to 100)
- Antibacterial activity grading B4 [6]: 1 (26 to 60)
- Amount of disease grading, disease C [7, 25]: 3 (0 to 5)
- Amount of disease grading, disease B [8, 25]: 3 (0 to 5)
- Antibacterial activity grading B3 [9]: 3 (0 to 5)
- Antibacterial activity grading B6 [10]: 2 (6 to 25)
- Amount of disease grading, disease D [11, 25]: 2 (6 to 25)
- Antibacterial activity grading B7 [12]: 1 (26 to 60)

Compound: O=[N+]([O-])c1ccccc1Nc1c(Cl)c(F)nc(F)c1Cl [Compound 11, 3,5-Dichloro-2,6-difluoro-4(2-nitroanilino)pyridine]
- Mortality grading (kill), contact test [13]: 0 (O represents less than 30% kill)
- Mortality grading (kill) [14]: 0 (O represents less than 30% kill)
- Mortality grading (kill) [15]: 0 (O represents less than 30% kill)
- Mortality grading (kill) [16]: 0 (key: O represents less than 30% kill; 1 represents 30 - 49% kill; 2 represents 60 - 90% kill; 3 represents over 90% kill; C indicates a chemosterilant effect.; A indicates an antifeeding effect.)
- Mortality grading (kill) [17]: 0 (O represents less than 30% kill)
- Mortality grading (kill) [18]: 0 (O represents less than 30% kill)
- Mortality grading (kill) [19]: 0 (O represents less than 30% kill)
- Mortality grading (kill) [20]: 0 (O represents less than 30% kill)
- Mortality grading (kill) [21]: 0 (O represents less than 30% kill)
- Mortality grading (kill) [22]: 0 (key: O represents less than 30% kill; 1 represents 30 - 49% kill; 2 represents 60 - 90% kill; 3 represents over 90% kill; C indicates a chemosterilant effect.; A indicates an antifeeding effect.)
- Mortality grading (kill) [23]: 2 (2 represents 60 - 90% kill)

Compound: Fc1nc(F)c(Cl)c(Nc2cc(C(F)(F)F)ccc2Br)c1Cl [Compound 13, 3,5-Dichloro-2,6-difluoro-4(2-bromo-5-trifluoromethylanilino)pyridine]
- Amount of disease grading, disease E ([4]; 100 ppm spray and drench): 2 (6 to 25)
- Mortality grading (kill), contact test [13]: 0 (O represents less than 30% kill)
- Amount of disease grading, disease A ([5]; 100 ppm spray and drench): 0 (61 to 100)
- Mortality grading (kill) [14]: 0 (O represents less than 30% kill)
- Mortality grading (kill) [15]: 0 (O represents less than 30% kill)
- Mortality grading (kill) [16]: 0 (key: O represents less than 30% kill; 1 represents 30 - 49% kill; 2 represents 60 - 90% kill; 3 represents over 90% kill; C indicates a chemosterilant effect.; A indicates an antifeeding effect.)
- Amount of disease grading, disease C ([7]; 100 ppm spray and drench): 3 (0 to 5)
- Mortality grading (kill) [17]: 0 (O represents less than 30% kill)
- Mortality grading (kill) [18]: 0 (O represents less than 30% kill)
- Mortality grading (kill) [19]: 0 (O represents less than 30% kill)
- Amount of disease grading, disease D ([11]; 100 ppm spray and drench): 0 (61 to 100)
- Mortality grading (kill) [20]: 0 (O represents less than 30% kill)
- Mortality grading (kill) [21]: 0 (O represents less than 30% kill)
- abnormal growth effects in larva of mosquitos ([21]; in vivo): abnormal growth effects
- Mortality grading (kill) [22]: 0 (key: O represents less than 30% kill; 1 represents 30 - 49% kill; 2 represents 60 - 90% kill; 3 represents over 90% kill; C indicates a chemosterilant effect.; A indicates an antifeeding effect.)
- Mortality grading (kill) [23]: 0 (O represents less than 30% kill)

Compound: O=[N+]([O-])c1ccc(Nc2c(F)c(F)nc(F)c2F)c([N+](=O)[O-])c1 [Compound 15, 4(2,4-Dinitroanilino)-tetrafluoropyridine]
- Antibacterial activity grading B2 [1]: 3 (0 to 5)
- Antibacterial activity grading B1 [2]: 3 (0 to 5)
- Antibacterial activity grading B5 [3]: 3 (0 to 5)
- Mortality grading (kill), contact test [13]: 2 (2 represents 60 - 90% kill)
- Amount of disease grading, disease A ([5]; 100 ppm spray and drench): 2 (6 to 25)
- Mortality grading (kill) [14]: 0 (O represents less than 30% kill)
- Mortality grading (kill) [15]: 3 (3 represents over 90% kill)
- Antibacterial activity grading B4 [6]: 3 (0 to 5)
- Mortality grading (kill) [16]: 2 (key: O represents less than 30% kill; 1 represents 30 - 49% kill; 2 represents 60 - 90% kill; 3 represents over 90% kill; C indicates a chemosterilant effect.; A indicates an antifeeding effect.)
- Amount of disease grading, disease C ([7]; 100 ppm spray and drench): 3 (0 to 5)
- Mortality grading (kill) [17]: 0 (O represents less than 30% kill)
- % Kill of slugs [24]: 50%
- Antibacterial activity grading B3 [9]: 3 (0 to 5)
- Mortality grading (kill) [18]: 0 (O represents less than 30% kill)
- Antibacterial activity grading B6 [10]: 3 (0 to 5)
- Mortality grading (kill) [19]: 2 (2 represents 60 - 90% kill)
- Amount of disease grading, disease D ([11]; 100 ppm spray and drench): 3 (0 to 5)
- Mortality grading (kill) [20]: 3 (3 represents over 90% kill)
- Mortality grading (kill) [21]: 0 (O represents less than 30% kill)
- Mortality grading (kill) [22]: 0 (key: O represents less than 30% kill; 1 represents 30 - 49% kill; 2 represents 60 - 90% kill; 3 represents over 90% kill; C indicates a chemosterilant effect.; A indicates an antifeeding effect.)
- Antibacterial activity grading B7 [12]: 3 (0 to 5)

Compound: COc1ccc(Nc2c(Cl)c(F)nc(F)c2Cl)c([N+](=O)[O-])c1 [Compound 18, 3,5-Dichloro-2,6-difluoro-4(4-methoxy-2-nitroanilino)pyridine]
- Mortality grading (kill) [14]: 0 (O represents less than 30% kill)
- Mortality grading (kill) [15]: 0 (O represents less than 30% kill)
- Mortality grading (kill) [16]: 0 (key: O represents less than 30% kill; 1 represents 30 - 49% kill; 2 represents 60 - 90% kill; 3 represents over 90% kill; C indicates a chemosterilant effect.; A indicates an antifeeding effect.)
- Mortality grading (kill) [17]: 0 (O represents less than 30% kill)
- % Kill of slugs [24]: 50%
- Mortality grading (kill) [18]: 0 (O represents less than 30% kill)
- Mortality grading (kill) [19]: 2 (2 represents 60 - 90% kill)
- Mortality grading (kill) [20]: 0 (O represents less than 30% kill)
- Mortality grading (kill) [21]: 0 (O represents less than 30% kill)
- Mortality grading (kill) [22]: 0 (key: O represents less than 30% kill; 1 represents 30 - 49% kill; 2 represents 60 - 90% kill; 3 represents over 90% kill; C indicates a chemosterilant effect.; A indicates an antifeeding effect.)
- Mortality grading (kill) [23]: 0 (O represents less than 30% kill)

Compound: O=[N+]([O-])c1cc([N+](=O)[O-])c(Nc2c(Cl)c(Cl)nc(Cl)c2Cl)cc1F [Compound 35, 4(5-Fluoro-2,4-dinitroanilino)tetrachloropyridine]
- Antibacterial activity grading B2 [1]: 0 (61 to 100)
- Antibacterial activity grading B1 [2]: 0 (61 to 100)
- Antibacterial activity grading B5 [3]: 1 (26 to 60)
- Amount of disease grading, disease E (Table 4) ([4]; 100 ppm spray and drench): 2 (6 to 25)
- Amount of disease grading, disease A (Table 4) ([5]; 100 ppm spray and drench): 2 (6 to 25)
- Antibacterial activity grading B4 [6]: 0 (61 to 100)
- Amount of disease grading, disease C (Table 4) ([7]; 100 ppm spray and drench): 3 (0 to 5)
- Amount of disease grading, disease B (Table 4) ([8]; 100 ppm spray and drench): 3 (0 to 5)
- Antibacterial activity grading B3 [9]: 0 (61 to 100)
- Antibacterial activity grading B6 [10]: 2 (6 to 25)
- Amount of disease grading, disease D (Table 4) ([11]; 100 ppm spray and drench): 0 (61 to 100)
- Antibacterial activity grading B7 [12]: 2 (6 to 25)
